Measured values reported in ChEMBL document CHEMBL5390321, “Transaminases Provide Key Chiral Building Blocks for the Synthesis of Selective M1/M4 Agonists” (ACS Med Chem Lett, 2023).

Key:
Type in all cases: functional, cell-based
[1] = target: T1, Muscarinic acetylcholine receptor M5 (Homo sapiens, UniProt P08912); assay: Activation of human cloned muscarinic M5 receptor expressed in CHO-K1 cells by Calcium flux assay relative to control
T1 sequence (P08912 whole entry): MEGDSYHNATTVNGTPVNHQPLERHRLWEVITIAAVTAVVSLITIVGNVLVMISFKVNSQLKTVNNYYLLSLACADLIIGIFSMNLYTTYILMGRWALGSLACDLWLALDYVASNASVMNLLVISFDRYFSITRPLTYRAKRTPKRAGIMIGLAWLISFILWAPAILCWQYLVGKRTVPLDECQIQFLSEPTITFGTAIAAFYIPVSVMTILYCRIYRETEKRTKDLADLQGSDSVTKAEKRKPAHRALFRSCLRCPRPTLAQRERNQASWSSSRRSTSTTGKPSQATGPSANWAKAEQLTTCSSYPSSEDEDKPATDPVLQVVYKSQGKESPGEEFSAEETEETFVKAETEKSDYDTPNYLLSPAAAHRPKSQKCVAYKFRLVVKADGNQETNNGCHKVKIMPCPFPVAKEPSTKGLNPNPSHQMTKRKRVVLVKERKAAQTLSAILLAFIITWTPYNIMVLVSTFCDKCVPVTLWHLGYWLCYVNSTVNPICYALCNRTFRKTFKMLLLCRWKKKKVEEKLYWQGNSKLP

[2] = target: Muscarinic acetylcholine receptor M3 (Homo sapiens, UniProt P20309); assay: Activation of human cloned muscarinic M3 receptor expressed in CHO-K1 cells by Calcium flux assay relative to control
[3] = target: T2, Muscarinic acetylcholine receptor M4 (Homo sapiens, UniProt P08173); assay: Activation of human cloned muscarinic M4 receptor expressed in CHO-K1 cells by Calcium flux assay relative to control
T2 sequence (P08173 whole entry): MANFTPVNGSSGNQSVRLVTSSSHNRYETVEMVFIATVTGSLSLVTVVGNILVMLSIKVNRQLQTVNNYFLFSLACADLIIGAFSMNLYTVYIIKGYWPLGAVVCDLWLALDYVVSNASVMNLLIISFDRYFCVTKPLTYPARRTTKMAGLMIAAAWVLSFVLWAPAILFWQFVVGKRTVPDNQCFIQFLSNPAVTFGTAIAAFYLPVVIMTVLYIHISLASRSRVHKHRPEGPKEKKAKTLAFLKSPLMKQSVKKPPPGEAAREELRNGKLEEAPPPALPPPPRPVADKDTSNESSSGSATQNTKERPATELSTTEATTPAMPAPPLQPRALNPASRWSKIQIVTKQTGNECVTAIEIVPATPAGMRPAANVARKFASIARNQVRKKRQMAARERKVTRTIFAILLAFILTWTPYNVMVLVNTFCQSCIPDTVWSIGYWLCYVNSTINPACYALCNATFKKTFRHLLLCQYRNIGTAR

[4] = target: T3, Muscarinic acetylcholine receptor M2 (Homo sapiens, UniProt P08172); assay: Activation of human cloned muscarinic M2 receptor expressed in CHO-K1 cells by Calcium flux assay
T3 sequence (P08172 whole entry): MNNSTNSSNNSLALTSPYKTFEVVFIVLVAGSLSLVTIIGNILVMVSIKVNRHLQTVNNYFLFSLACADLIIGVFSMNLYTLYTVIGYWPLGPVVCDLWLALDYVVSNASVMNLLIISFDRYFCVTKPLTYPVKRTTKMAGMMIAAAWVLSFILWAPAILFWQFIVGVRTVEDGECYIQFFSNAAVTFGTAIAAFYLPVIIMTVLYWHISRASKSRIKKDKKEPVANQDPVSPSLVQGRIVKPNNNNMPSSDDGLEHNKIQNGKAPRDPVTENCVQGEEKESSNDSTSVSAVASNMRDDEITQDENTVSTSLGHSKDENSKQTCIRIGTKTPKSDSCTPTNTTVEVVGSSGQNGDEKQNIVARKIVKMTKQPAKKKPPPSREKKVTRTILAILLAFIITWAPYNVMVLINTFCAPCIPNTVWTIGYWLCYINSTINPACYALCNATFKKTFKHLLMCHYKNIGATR

Sequence of Muscarinic acetylcholine receptor M3 (P20309 whole entry): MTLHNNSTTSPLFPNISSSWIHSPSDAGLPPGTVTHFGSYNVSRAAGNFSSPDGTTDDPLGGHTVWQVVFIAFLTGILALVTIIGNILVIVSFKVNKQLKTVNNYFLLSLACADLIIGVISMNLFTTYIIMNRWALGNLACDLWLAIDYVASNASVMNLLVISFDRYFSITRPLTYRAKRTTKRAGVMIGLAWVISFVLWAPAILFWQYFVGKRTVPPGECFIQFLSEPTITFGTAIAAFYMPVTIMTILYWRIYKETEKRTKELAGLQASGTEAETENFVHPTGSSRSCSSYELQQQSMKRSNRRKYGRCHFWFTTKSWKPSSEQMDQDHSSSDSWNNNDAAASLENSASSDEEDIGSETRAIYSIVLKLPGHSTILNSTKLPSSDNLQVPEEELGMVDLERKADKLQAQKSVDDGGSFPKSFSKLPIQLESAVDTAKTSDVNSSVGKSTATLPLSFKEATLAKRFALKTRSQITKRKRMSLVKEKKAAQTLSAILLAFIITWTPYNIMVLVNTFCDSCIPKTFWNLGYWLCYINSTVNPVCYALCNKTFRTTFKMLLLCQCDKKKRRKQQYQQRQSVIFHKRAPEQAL

EC50 [1] [µM]	EC50 [2] [µM]	EC50 [3] [µM]	EC50 [4] [µM]	Compound
> 25	> 25	0.0065	0.21	CCOc1ccccc1C1CCN([C@@H]2CCC3(C2)CN(C(=O)C2COC2)C3)CC1
–	> 25	–	–	CCOc1ccccc1C1CCN([C@@H]2CCC3(C2)CN(C(C)=O)C3)CC1
> 25	> 25	–	–	CCOc1ccccc1C1CCN([C@@H]2CCC3(C2)CN(C(=O)CC)C3)CC1
–	> 25	–	–	COc1ccccc1C1CCN(C2CCC3(C2)CN(C(=O)C2COC2)C3)CC1 (single isomer, unassigned)

More lines, now with the values behind:

Compound	EC50 [1] [µM]	EC50 [2] [µM]	EC50 [3] [µM]	EC50 [4] [µM]
COc1ccccc1C1CCN([C@@H]2COC3(C2)CN(C(=O)C2COC2)C3)CC1	> 25	> 25	–	–
COc1ccc(F)cc1C1CCN([C@@H]2CCC3(C2)CN(C(=O)C2COC2)C3)CC1	0.14	> 25	0.0017	–
COc1cc(F)ccc1C1CCN([C@@H]2COC3(C2)CN(C(=O)C2COC2)C3)CC1	> 25	> 25	–	–
COc1ccc(F)cc1C1CCN([C@@H]2COC3(C2)CN(C(=O)C2COC2)C3)CC1	> 25	> 25	–	–
COc1cc(F)ccc1C1CCN([C@@H]2CCC3(C2)CN(C(=O)C2COC2)C3)CC1	> 25	> 25	0.0093	–
CCCCCCOc1nsnc1C1=CCCN(C)C1 [XANOMELINE]	–	0.11	–	–
